Measured values reported in patent US12601740B2 (priority 2021, dated 2026).
Values after ≈ are worked out from the molar mass of the structure shown.

Columns and labels:
E. coli BAA 2340 = experiment: MIC by phage T7 amplification ELISA, serial microdilution in urine; details: Escherichia coli, BAA2340, 2 h
E. coli BAA 2452 = experiment: as above; details: Escherichia coli, BAA2452, 2 h
E. coli O157:H7 = experiment: microbe, parasite or virus in culture; format: cell-based; details: Escherichia coli; E. coli strain O157:H7 in urine, ~1×10^6 cfu/mL, phage T7 amplification 2 hours at 37° C.
E. coli BAA 2523 = experiment: MIC by phage T7 amplification ELISA, serial microdilution in urine; details: Escherichia coli, BAA2523, 2 h
E. coli BAA 198 = experiment: as above; details: Escherichia coli, BAA198, 2 h
E. coli 15597 = experiment: as above; details: Escherichia coli, 15597, 2 h
E. coli BAA 196 = experiment: as above; details: Escherichia coli, BAA196, 2 h
E. coli BAA 2471 = experiment: as above; details: Escherichia coli, BAA2471, 2 h
E. coli BAA 197 = experiment: as above; details: Escherichia coli, BAA197, 2 h

SMILES | MIC (E. coli BAA 2340) [µg/mL] | MIC (E. coli BAA 2452) [µg/mL] | MIC (E. coli O157:H7) [µg/mL] | MIC (E. coli BAA 2523) [µg/mL] | MIC (E. coli BAA 198) [µg/mL] | MIC (E. coli 15597) [µg/mL] | MIC (E. coli BAA 196) [µg/mL] | MIC (E. coli BAA 2471) [µg/mL] | MIC (E. coli BAA 197) [µg/mL]
CO/N=C(\C(=O)N[C@@H]1C(=O)N2C(C(=O)O)=C(CSc3nc(=O)c(=O)[nH]n3C)CS[C@H]12)c1csc(N)n1 [Ceftriaxone] | > 64 | 68 (≈ 123 µM) | 64 (≈ 115 µM) | 256 (≈ 462 µM) | > 64 | 8 (≈ 14.4 µM) | > 64 | > 256 | > 64
Cc1onc(-c2ccccc2)c1C(=O)N[C@@H]1C(=O)N2[C@@H]1SC(C)(C)[C@@H]2C(=O)O [Oxacillin] | > 64 | 64 (≈ 159 µM) | > 256 | 256 (≈ 638 µM) | > 64 | 64 (≈ 159 µM) | > 64 | > 256 | > 64
C[C@@H](O)[C@H]1C(=O)N2C(C(=O)O)=C(SCCN=CN)C[C@H]12 [Imipenem] | > 64 | 256 (≈ 855 µM) | 64 (≈ 214 µM) | 64 (≈ 214 µM) | 64 (≈ 214 µM) | 4 (≈ 13.4 µM) | 16 (≈ 53.4 µM) | 32 (≈ 107 µM) | 32 (≈ 107 µM)
CC(C)(O/N=C(\C(=O)N[C@@H]1C(=O)N2C(C(=O)[O-])=C(C[n+]3ccccc3)CS[C@H]12)c1csc(N)n1)C(=O)O [Ceftazidime] | > 64 | 16 (≈ 29.3 µM) | 256 (≈ 468 µM) | > 256 | > 64 | 0.5 (≈ 0.915 µM) | > 64 | > 256 | > 64
C[C@@H](O)[C@H]1C(=O)N2C(C(=O)O)=C(S[C@@H]3CN[C@H](C(=O)N(C)C)C3)[C@H](C)[C@H]12 [Meropenem] | 16 (≈ 41.7 µM) | 16 (≈ 41.7 µM) | 0.25 (≈ 0.652 µM) | 1 (≈ 2.61 µM) | 16 (≈ 41.7 µM) | > 64 | 16 (≈ 41.7 µM) | 16 (≈ 41.7 µM) | 64 (≈ 167 µM)
C[C@@H](O)[C@H]1C(=O)N2C(C(=O)O)=C(S[C@@H]3CN[C@H](CNS(N)(=O)=O)C3)[C@H](C)[C@H]12 [Doripenem] | 16 (≈ 38 µM) | 16 (≈ 38 µM) | 0.25 (≈ 0.595 µM) | 0.5 (≈ 1.19 µM) | 32 (≈ 76.1 µM) | > 64 | 16 (≈ 38 µM) | 256 (≈ 609 µM) | 32 (≈ 76.1 µM)
C[C@@H](O)[C@H]1C(=O)N2C(C(=O)O)=C(S[C@@H]3CN[C@H](C(=O)Nc4cccc(C(=O)O)c4)C3)[C@H](C)[C@H]12 [Ertapenem] | 68 (≈ 143 µM) | 16 (≈ 33.6 µM) | 2 (≈ 4.21 µM) | 8 (≈ 16.8 µM) | 64 (≈ 135 µM) | 0.5 (≈ 1.05 µM) | 64 (≈ 135 µM) | > 256 | > 64
CO/N=C(\C(=O)N[C@@H]1C(=O)N2C(C(=O)[O-])=C(C[N+]3(C)CCCC3)CS[C@H]12)c1csc(N)n1 [Cefepime] | 68 (≈ 141 µM) | 68 (≈ 141 µM) | 8 (≈ 16.6 µM) | 16 (≈ 33.3 µM) | 64 (≈ 133 µM) | 8 (≈ 16.6 µM) | 64 (≈ 133 µM) | > 256 | > 64
